Molecular target: T1, biotinylated human IL-17 (binding to IL17R/Fc) (Homo sapiens, UniProt Q16552)
T1 construct: purchased R&D Systems 317-ILB (IL-17, biotinylated); 177-IR (IL17R/Fc)
T1 sequence (Q16552 20-155 limits assumed): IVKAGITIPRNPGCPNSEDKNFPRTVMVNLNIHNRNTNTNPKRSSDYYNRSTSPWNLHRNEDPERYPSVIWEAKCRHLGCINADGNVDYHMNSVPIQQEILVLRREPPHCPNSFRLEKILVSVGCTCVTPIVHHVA
Experiment: IL-17 competition ELISA II (captured IL17R/Fc, biotinylated IL-17)
How it was run: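 Competition read-out: absorbance at 450 nm after streptavidin-HRP/TMB detection, fitted to a 4-parameter logistic model bounded by no-competitor and blank wells to give IC50. Compound was serially diluted 5-fold from 1 μM alongside 20 nM (stock) biotinylated IL-17 on IL17R/Fc (10 nM) captured via goat anti-human IgG, 30 min at room temperature.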

| SMILES | IC50 [nM] |
| --- | --- |
| CN1CCCCCN(C)C(=O)[C@@H](Cc2ccncc2)NC(=O)[C@@H](Cc2ccc(NC(=O)[C@H](Cc3ccccc3Cl)NC(=O)Cc3cccnc3)cc2)NC(=O)CC2(CCCC2)CC1=O [Compound 629] | < 100 |
| C[C@H]1NC(=O)[C@@H](Cc2ccc(NC(=O)[C@H](Cc3cccs3)NC(=O)C(F)(F)c3ccccc3)cc2)NC(=O)CC2(CCCC2)CC(=O)N(C)CCCCCN(C)C1=O [Compound 630] | < 100 |
| COC(=O)N[C@H](C(=O)Nc1ccc(C[C@H]2NC(=O)CC3(CCCC3)CC(=O)NCCOCCOCCNC2=O)cc1)C1CCCCC1 [Compound 632] | 100 to 1000 |
| C[C@H]1NC(=O)[C@@H](Cc2ccc(NC(=O)[C@H](Cc3ccccc3Cl)NC(=O)C(F)(F)c3ccccc3)cc2)NC(=O)C[C@H](Cc2ccccc2)NC(=O)CCNC(=O)CCNC1=O [Compound 633] | < 100 |
| C[C@H]1NC(=O)[C@@H](Cc2ccc(NC(=O)[C@H](Cc3ccccc3Cl)NC(=O)C(F)(F)c3ccccc3)cc2)NC(=O)C[C@@H](Cc2ccccc2)NC(=O)CCNC(=O)CCNC1=O [Compound 634] | < 100 |
| C[C@H]1NC(=O)[C@@H](Cc2ccc(NC(=O)[C@H](Cc3ccccc3Cl)NC(=O)C(F)(F)c3ccccc3)cc2)NC(=O)CC2(CCCC2)NC(=O)CCNC(=O)CCNC1=O [Compound 635] | < 100 |
| C[C@H]1NC(=O)[C@@H](Cc2ccc(NC(=O)[C@H](Cc3ccccc3Cl)NC(=O)C(F)(F)c3ccccc3)cc2)NC(=O)CC2(CCCC2)NC(=O)CCNC(=O)CCN(C)C1=O [Compound 636] | < 100 |
| CN1CCOCCN(C)C(=O)[C@@H](Cc2ccccn2)NC(=O)[C@@H](Cc2ccc(NC(=O)[C@H](Cc3ccccc3Cl)NC(=O)C(F)(F)c3ccccc3)cc2)NC(=O)CC2(CCCC2)CC1=O [Compound 637] | < 100 |
| CN1CCOCCN(C)C(=O)[C@@H](Cc2cccnc2)NC(=O)[C@@H](Cc2ccc(NC(=O)[C@H](Cc3ccccc3Cl)NC(=O)C(F)(F)c3ccccc3)cc2)NC(=O)CC2(CCCC2)CC1=O [Compound 638] | < 100 |
| CN(C)CCCC[C@H]1NC(=O)[C@@H](Cc2ccc(NC(=O)[C@H](Cc3ccccc3Cl)NC(=O)C(F)(F)c3ccccc3)cc2)NC(=O)CC2(CCCC2)CC(=O)N(C)CCOCCN(C)C1=O [Compound 641] | < 100 |
| CN(C)CC[C@H]1NC(=O)[C@@H](Cc2ccc(NC(=O)[C@H](Cc3ccccc3Cl)NC(=O)C(F)(F)c3ccccc3)cc2)NC(=O)CC2(CCCC2)CC(=O)N(C)CCOCCN(C)C1=O [Compound 642] | < 100 |
| CC(c1ccccc1)C(NC(=O)C(F)(F)c1ccccc1)C(=O)Nc1ccc(C[C@H]2NC(=O)CC3(CCCC3)CC(=O)N(C)CCOCCOCCNC2=O)cc1 (stereo partly shown) [Compound 643] | < 100 |
| O=C1CC2(CCCC2)CC(=O)N[C@H](Cc2ccc(NC(=O)[C@@H](NC(=O)Cc3cccc(O)c3)C3CCCCC3)cc2)C(=O)NCCOCCOCCN1 [Compound 647] | < 100 |
| CN1CCOCCN(C)C(=O)[C@@H](CCS(C)(=O)=O)NC(=O)[C@@H](Cc2ccc(NC(=O)[C@H](Cc3ccccc3Cl)NC(=O)C(F)(F)c3ccccc3)cc2)NC(=O)CC2(CCCC2)CC1=O [Compound 649] | < 100 |
| NC(=O)CC[C@@H]1NC(=O)[C@@H](Cc2ccc(NC(=O)[C@H](Cc3ccccc3Cl)NC(=O)Cc3ccc(F)cc3)cc2)NC(=O)CC2(CCCC2)CC(=O)N[C@H](C(=O)O)CCCCNC1=O [Compound 651] | < 100 |
| O=C1CC2(CCCC2)NC(=O)CCCCNC(=O)[C@@H](Cc2ccc(NC(=O)[C@H](Cc3ccccc3Cl)NC(=O)C(F)(F)c3ccccc3)cc2)N1 [Compound 652] | 100 to 1000 |
| NC(=O)c1ccccc1C[C@H]1NC(=O)[C@@H](Cc2ccc(NC(=O)[C@H](Cc3ccccc3Cl)NC(=O)Cc3ccc(CO)cc3)cc2)NC(=O)CC2(CCCC2)CC(=O)N[C@H](C(=O)O)CCCCNC1=O [Compound 659] | < 100 |
| CN1CCCC[C@@H](C(=O)O)N(C)C(=O)CC2(CCCC2)CC(=O)N[C@H](Cc2ccc(NC(=O)[C@H](Cc3ccccc3Cl)NC(=O)C(F)(F)c3ccccc3)cc2)C(=O)N[C@H](CCC(N)=O)C1=O [Compound 667] | < 100 |
| CN1CCCC[C@@H](C(=O)O)N(C)C(=O)CC2(CCCC2)CC(=O)N[C@H](Cc2ccc(NC(=O)[C@@H](NC(=O)C(F)(F)c3ccccc3)C3CCCCC3)cc2)C(=O)N[C@H](CCC(N)=O)C1=O [Compound 668] | < 100 |
| CN1CCCCCN(C)C(=O)[C@@H](CC(N)=O)NC(=O)[C@@H](Cc2ccc(NC(=O)[C@H](Cc3ccccc3Cl)NC(=O)C(F)(F)c3ccccc3)cc2)NC(=O)CC2(CCCC2)CC1=O [Compound 669] | < 100 |
| O=C1CNC(=O)[C@@H](Cc2ccc(NC(=O)[C@@H](NC(=O)C(F)(F)c3ccccc3)C3CCCCC3)cc2)NC(=O)CC2(CCCC2)CC(=O)OCCCCCN1 [Compound 671] | < 100 |
| O=C1CNC(=O)[C@@H](Cc2ccc(NC(=O)[C@@H](NC(=O)C(F)F)C3CCCCC3)cc2)NC(=O)CC2(CCCC2)CC(=O)OCCCCCN1 [Compound 672] | < 100 |
| CC(=O)N[C@H](C(=O)Nc1ccc(C[C@H]2NC(=O)CC3(CCCC3)CC(=O)OCCCCCNC(=O)CNC2=O)cc1)C1CCCCC1 [Compound 673] | < 100 |

Results, then the molecule that gave them:

| IC50 [nM] | SMILES |
| --- | --- |
| < 100 | C[C@H]1NC(=O)[C@@H](Cc2ccc(NC(=O)[C@@H](NC(=O)C(F)(F)c3ccccc3)C3Cc4ccccc4C3)cc2)NC(=O)CC2(CCCC2)CC(=O)N(C)CCCCCN(C)C1=O [Compound 631] |
| < 100 | CN1CCOCCOCCNC(=O)[C@@H](Cc2ccc(NC(=O)[C@@H](NC(=O)Cc3ccc(N(C)C)cc3)C3CCCCC3)cc2)NC(=O)CC2(CCCC2)CC1=O [Compound 640] |
| < 100 | C[C@H]1NC(=O)[C@@H](Cc2ccc(NC(=O)[C@@H](NC(=O)Cc3ccc(N(C)C)cc3)C3Cc4ccccc4C3)cc2)NC(=O)CC2(CCCC2)CC(=O)N(C)CCCCCN(C)C1=O [Compound 644] |
| < 100 | CN1CCOCCN(C)C(=O)[C@@H](Cc2cccnc2)NC(=O)[C@@H](Cc2ccc(NC(=O)[C@@H](NC(=O)C(F)(F)c3ccccc3)C3CCCCC3)cc2)NC(=O)CC2(CCCC2)CC1=O [Compound 650] |
| < 100 | C[C@H]1NC(=O)[C@@H](Cc2ccc(NC(=O)[C@H](Cc3ccccc3Cl)Nc3nc4ccccc4o3)cc2)NC(=O)CC2(CCCC2)CC(=O)N(C)CCOCCN(C)C1=O [Compound 654] |
| < 100 | CC(O)[C@H]1NC(=O)[C@@H](Cc2ccc(NC(=O)[C@@H](NC(=O)C(F)(F)c3ccccc3)C3CCCCC3)cc2)NC(=O)CC2(CCCC2)CC(=O)N(C)CCOCCN(C)C1=O (stereo partly shown) [Compound 655] |
| < 100 | C[C@H]1NC(=O)[C@@H](Cc2ccc(NC(=O)[C@@H](Nc3nc4ccccc4o3)C3CCCCC3)cc2)NC(=O)CC2(CCCC2)CC(=O)N(C)CCOCCN(C)C1=O [Compound 663] |
| < 100 | C[C@H]1NC(=O)[C@@H](Cc2ccc(NC(=O)[C@@H](Nc3nc4ccccc4o3)C3CCCCC3)cc2)NC(=O)CC2(CCCC2)CC(=O)NCCCCCNC1=O [Compound 664] |
| < 100 | C[C@H]1NC(=O)[C@@H](Cc2ccc(NC(=O)[C@@H](Nc3nc4ccccc4o3)C3CCCCC3)cc2)NC(=O)CC2(CCCC2)CC(=O)N(C)CCCCCN(C)C1=O [Compound 665] |
| < 100 | COC(=O)c1coc(N[C@@H](Cc2ccccc2Cl)C(=O)Nc2ccc(C[C@H]3NC(=O)CC4(CCCC4)CC(=O)N(C)CCOCCN(C)C(=O)[C@@H](C)NC3=O)cc2)n1 [Compound 666] |
| < 100 | CN1CCCCCN(C)C(=O)[C@@H](CC(N)=O)NC(=O)[C@@H](Cc2ccc(NC(=O)[C@@H](NC(=O)C(F)(F)c3ccccc3)C3CCCCC3)cc2)NC(=O)CC2(CCCC2)CC1=O [Compound 670] |

From patent US9284283B2, “Macrocyclic compounds for modulating IL-17” (ENSEMBLE THERAPEUTICS CORPORATION, priority 2012, dated 2016)
